Data published in patent US8778643B2, “Methods for increasing lipid levels and producing triacylglycerols in algae” (priority 2012, dated 2014).

Columns and labels:
Cdk2/cyclin E = Cdk2/cyclin E (Homo sapiens, UniProt P24941); conditions: cited from earlier work
Cdk2/cyclin A = Cdk2/cyclin A (Homo sapiens, UniProt P24941); conditions: Cdk2/cyclin A; cited from earlier work
Nannochloris sp. [1] = test: Microplate assay: growth (absorbance 680 nm) and intracellular lipids (Nile Red fluorescence); type: cell-based; conditions: for Absorbance (percent increase) / Nile Red percent increase: initial microplate screen, relative to control; for Nile Red Fluorescence % Increase: initial screening, p<0.05
Nannochloropsis oculata [2] = conditions: N. oculata; for Nile Red Fluorescence % Increase: compounds tested at 200 nM, initial screening, p<0.05
c-Jun N-terminal kinase = conditions: cited from earlier work
ERK signaling pathway = conditions: cited from earlier work
Diacylglycerol lipase = conditions: cited from earlier work
Nannochloropsis oculata [3] = test: Lipid composition of batch culture extracts (fatty acid saturation / PUFA by 1H NMR, MALDI-TOF, GC/MS); type: cell-based; conditions: N. oculata, 40 nM, n=1
microalgae = test: 500 mL batch culture (growth, gravimetric lipids), algae strain not stated; type: cell-based; conditions: 500 mL batch cultures (Table 30)
Nannochloropsis salina [4] = tested on: Nannochloropsis salina
Protocol: Stock cultures were aerated by stirring with bubbling air (homemade manifold with Petco air pump, 2-4% CO2) or by orbital shaking (Thermo Scientific MAXQ 2000) at a constant speed of 150 rpm at 22±3° C. with a 16:8 hour light/dark cycle. Stocks were kept at stationary phase for use. Algae were prepared as dictated by culture center.
Compounds were selected based on reported biological activity in non-microalgae organisms. To ensure that compounds retained their quality, they were stored under advised conditions after purchasing from the manufacturer. Solutions of all assay compounds were prepared as 10 mM stock solutions by dissolving in DMSO in 2-dram amber vials and then stored in darkness −20° C. 96-well PCR plates were used to create a stock plate layout that was then transferred to the algae microplates. A plate map was used to distribute each compound to a well based on molecule name, collection number, and CAS number. For 20 μM and 200 nM assay plates, 10 mM compound stock in DMSO was diluted into plate maps of 5 mM and 50 μM assay stocks, respectively.
All materials for assay experiments were autoclaved before each use to maintain axenic algae cultures. Algae species were checked for homogeneity using a TS-100 light microscope (Nikon, Japan). […] Diluted stock solutions were made immediately prior to use for consistency and optimal plate growth. Cell density was measured on a Thermo Scientific Genesys 10S Vis Spectrophotometer (ThermoFisher, San Jose), using a 1 mL cuvette at 680 nm.
Plates were originally run in triplicate, before replicates were increased to quadruplicate, along with a separate control plate to compare growth. Due to extensive evaporation in exterior wells over time, our unique algae plate layout was designed to use the 60 interior wells out of 96 wells for the experiment. The 36 outer wells were filled with Millipore water and media to prevent evaporation and edge effects in the inner algae wells, as well as serve as blanks. The 60 wells with algae contained a total volume of 251 μL (100 μL of media+DMSO compound stock +150 μL dilute algae stock). For 20 μM and 200 nM assay plates, 10 mM compound stock in DMSO is diluted into plate maps of 5 mM and 50 μM assay stocks, respectively. […] Plates were parafilmed during growth to limit the amount of evaporation that can occur. Plates were numbered, and numerically ordered to ensure they got the same shaker space.
The shakers are kept at a constant shaking of 150 rpm. Ambient temperature is 22±3° C.

Nannochloris sp. [5] = test: 500 mL batch culture: growth, dry weight and lipid extract (gravimetric); type: cell-based; conditions: Nannochloris sp., 500 mL culture, 40 nM
Protocol: (§1) Batch cultures were grown in 500 mL Pyrex media bottles with stirring and air bubbling (homemade manifold with Petco air pump, 2-4% CO2). Incoming air was sterile filtered by Polyvent 4 disposable filters (Whatman, Kent, UK). […] To minimize bacterial contamination, all equipment and materials were autoclaved and media was added to flask in a Purifier Vertical Clean bench (Labconco, Kansas City, Mo.). […] The amount of DMSO is standardized for all experiments to 0.4%.
(§2) For all compound cultures, the 2 mL DMSO stock solution was added to media (without algae) first and mixed well. Control cultures were grown without DMSO. DMSO controls consisted of 0.04-1.0% DMSO. After the addition of algae and media, the container was plugged with a bug stopper vented closure cap and mixed thoroughly. Absorbance is measured immediately for Day 0 analysis. Afterward, absorbance was measured every 1-2 days with a cuvette (1 mL volume) on the Thermo Scientific Genesys 10S V is Spectrophotometer (ThermoFisher, San Jose) at 680 nm.
(§3) Batch cultures were also repeated in triplicate and compared to a control culture grown at the same time. Algae were harvested and lipids were extracted for gravimetric analysis.
The nonpolar algal extracts were harvested from 500 mL cultures when indicated on growth curves, a minimum of 3 days into stationary phase.
(§4) Cell density was monitored by measuring absorbance at 680 nm every 1-2 days.
(§5) 500-mL cultures were harvested 6 days into stationary phase based on absorbance values. Cells were concentrated by centrifugation and lyophilization to remove water. Nonpolar lipids were extracted by sonication and solvent (chloroform-methanol and PBS buffer). […] Changes in lipid levels for batch cultures were determined by crude lipid extract mass.

[6] = target: T1, PKA (rat liver catalytic subunit) (Rattus norvegicus, UniProt P27791); conditions: cited from earlier work
T1 construct: rat liver catalytic subunit; host or cells: rat liver

MLCK = conditions: cited from earlier work
[7] = tested on: Phaeodactylum tricornutum; test: Microplate assay: growth (absorbance 680 nm) and intracellular lipids (Nile Red fluorescence); type: cell-based
PKC = conditions: cited from earlier work
PKA = PKA (Homo sapiens, UniProt P17612); conditions: cited from earlier work
EGFR tyrosine kinase = EGFR tyrosine kinase (Homo sapiens, UniProt P00533); conditions: cited from earlier work
p70 S6 kinase activation = conditions: signaling that leads to p70 S6 kinase activation; cited from earlier work
[8] = tested on: microsomal lipid peroxidation; conditions: cited from earlier work
Nannochloropsis salina [9] = test: 500 mL batch culture: growth, dry weight and lipid extract (gravimetric); type: cell-based; conditions: 40 nM
Protocol: as §1, §2, §3
Cultures were harvested at day 6 in stationary phase. Cultures were pelleted, lyophilized, and extracted side-by-side. The experiment was performed in triplicate.
The nonpolar algal extracts were harvested from 500 mL cultures when indicated on growth curves, a minimum of 3 days into stationary phase. […] Cells were crushed and nonpolar lipids were extracted by sonication (Fisher Scientific Model 120 Sonic Dismembrator, ThermoFisher, San Jose) for 1 minute in chloroform, followed by chloroform-methanol extractions, washed with PBS butter, and dried under vacuum.^55-60 The crude non-polar algae extracts were then analyzed by ^1H Nuclear Magnetic Resonance (^1H NMR) for verification of TAG presence and examination of the purity of the extract (determination of level of chlorophyll).
as §4, §5

CDK = conditions: CDKs; cited from earlier work

Chain of EGFR tyrosine kinase (P00533 25-1210): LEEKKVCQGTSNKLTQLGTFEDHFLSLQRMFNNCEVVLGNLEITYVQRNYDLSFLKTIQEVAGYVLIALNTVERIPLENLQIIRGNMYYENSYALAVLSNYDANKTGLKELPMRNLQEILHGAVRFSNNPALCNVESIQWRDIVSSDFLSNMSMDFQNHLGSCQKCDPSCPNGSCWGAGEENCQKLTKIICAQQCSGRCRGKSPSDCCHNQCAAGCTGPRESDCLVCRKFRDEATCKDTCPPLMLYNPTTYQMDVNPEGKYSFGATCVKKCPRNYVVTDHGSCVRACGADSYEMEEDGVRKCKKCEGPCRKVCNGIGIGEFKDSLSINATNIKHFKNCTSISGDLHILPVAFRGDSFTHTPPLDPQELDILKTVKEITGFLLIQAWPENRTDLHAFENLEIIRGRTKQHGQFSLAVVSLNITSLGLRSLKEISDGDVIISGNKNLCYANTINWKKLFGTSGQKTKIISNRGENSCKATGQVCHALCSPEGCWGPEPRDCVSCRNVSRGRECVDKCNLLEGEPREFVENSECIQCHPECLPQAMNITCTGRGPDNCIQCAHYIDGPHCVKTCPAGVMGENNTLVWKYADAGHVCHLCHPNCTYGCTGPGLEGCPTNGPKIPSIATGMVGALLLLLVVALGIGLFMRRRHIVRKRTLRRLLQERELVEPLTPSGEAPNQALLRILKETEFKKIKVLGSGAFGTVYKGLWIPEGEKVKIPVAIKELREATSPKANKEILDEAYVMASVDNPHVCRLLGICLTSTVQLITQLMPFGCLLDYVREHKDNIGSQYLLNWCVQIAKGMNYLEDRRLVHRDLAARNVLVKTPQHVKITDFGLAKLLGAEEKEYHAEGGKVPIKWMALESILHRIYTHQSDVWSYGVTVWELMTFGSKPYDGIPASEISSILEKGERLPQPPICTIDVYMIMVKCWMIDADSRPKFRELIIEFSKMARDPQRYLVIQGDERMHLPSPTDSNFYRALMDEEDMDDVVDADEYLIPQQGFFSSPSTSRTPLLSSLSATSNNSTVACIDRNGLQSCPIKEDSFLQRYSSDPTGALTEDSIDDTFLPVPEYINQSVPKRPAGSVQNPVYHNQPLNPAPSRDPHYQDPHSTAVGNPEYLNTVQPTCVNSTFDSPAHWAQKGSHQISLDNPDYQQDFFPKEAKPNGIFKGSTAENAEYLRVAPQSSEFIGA

## CCCCc1c(-c2ccc(O)cc2)[nH]c2nccnc12 [Aloisine A, 7-n-Butyl-6-(4-hydroxyphenyl)[5H]pyrrolo[2,3-b]pyrazine]
Cdk2/cyclin E
  IC50: 400 nM
Cdk2/cyclin A
  IC50: 120 nM
Nannochloris sp. [1]; 200 nM
  Absorbance (percent increase): −5.4%
  Nile Red percent increase: 125.9%
Nannochloris sp. [1]; 20 μM
  Absorbance (percent increase): −12.6%
  Nile Red percent increase: 84.1%
Nannochloropsis oculata [2]
  Nile Red Fluorescence % Increase: 117.7%
c-Jun N-terminal kinase
  IC50: 3000 to 10000 nM

## Cn1cnc2c1c(=O)[nH]c(=O)n2C [Theobromine]
Nannochloris sp. [1]; Nannochloris sp., compounds tested at 200 nM
  Nile Red Fluorescence % Increase: 34.3%
ERK signaling pathway
  potency: (potency = 0.004 μM)

## CCCCCCCCCCC[C@@H](C[C@@H]1OC(=O)[C@H]1CCCCCC)OC(=O)[C@H](CC(C)C)NC=O [orlistat, (S)-((S)-1-((2S,3S)-3-hexyl-4-oxooxetan-2-yl)tridecan-2-yl) 2-formamido-4-methylpentanoate]
Diacylglycerol lipase
  IC50: 1000 nM
Nannochloropsis oculata [3]; Normal 0 ± 1
  SFAs (%): 3%
Nannochloropsis oculata [3]; Normal 4 ± 7
  MUFAs (%): 29%
Nannochloropsis oculata [3]; Normal 28 ± 4
  n3 PUFAs (%): 16%
Nannochloropsis oculata [3]; Normal 96 ± 7
  PUFAs (%): 68%
microalgae
  effect on growth and lipid levels: positive increases in growth and lipid levels
Nannochloropsis oculata [2]; 13 nM
  % change in abs: 0.83%
  % in NR fl: 63.67%
Nannochloropsis salina [4]; N. salina, 40 μM
  % change in abs: −31.92%
  % in NR fl: 61.76%
Nannochloris sp. [5]
  Lipid productivity: 5.1 ± 1.5 mgL^−1day^−1
Nannochloris sp. [5]; gravimetric, relative to averaged control without DMSO
  Change in Lipids: 72%
Nannochloris sp. [5]; mid-exponential growth phase
  Specific Growth Rate: 0.20 ± 0.01 day⁻¹

## Oc1cc(O)cc(/C=C/c2ccc(O)c(O)c2)c1 [Piceatannol, 3,3′,4,5′-Tetrahydroxy-trans-stilbene]
[6]
  IC50: 3000 nM
MLCK
  IC50: 12000 nM
Nannochloropsis salina [4]; 40 μM, dose-response microplate screen
  Nile Red percent increase: 195%
Nannochloropsis salina [4]; 55-40 μM
  % increase (lipid production): 0.3-148%
[7]; 4-40 μM (H2O)
  % increase (lipid production): 7-41 (H2O) %
PKC; PKC
  IC50: 8000 nM

## CN(C)CCCn1cc(C2=C(c3c[nH]c4ccccc34)C(=O)NC2=O)c2ccccc21 [Bisindolylmaleimide, 2-[1-(3-Dimethylaminopropyl)-1H-indol-3-yl]-3-(1H-indol-3-yl)-maleimide]
Nannochloris sp. [1]; 0 h, 1.3 µM
  % Increase based on Nile Red Fluorescence Intensity: 70%
Nannochloris sp. [1]; Nannochloris sp., 49 nM, (water), t=day 0
  % Lipid increase based on Nile red fluorescence intensity: 141%
PKA
  Ki: 2000 nM
PKC
  Ki: 10 nM

## O=C(/C=C/c1ccc(O)c(O)c1)c1ccc(O)cc1O [Butein, (E)-1-(2,4-dihydroxyphenyl)-3-(3,4-dihydroxyphenyl)prop-2-en-1-one]
EGFR tyrosine kinase
  IC50: 65000 nM
[7]; 54 nM-40 μM (H2O)
  % increase (lipid production): 1-116 (H2O) %
[7]; 40 μM
  % increase (lipid production): 14%

## CO[C@H]1C[C@@H]2CC[C@@H](C)[C@@](O)(O2)C(=O)C(=O)N2CCCC[C@H]2C(=O)O[C@H]([C@H](C)C[C@@H]2CC[C@@H](O)[C@H](OC)C2)CC(=O)[C@H](C)/C=C(\C)[C@@H](O)[C@@H](OC)C(=O)[C@H](C)C[C@H](C)/C=C/C=C/C=C/1C [Rapamycin, (3S,6R,7E,9R,10R,12R,14S,15E,17E,19E,21S,23S,26R,27R,34aS)-9,10,12,13,14,21,22,23,24,25,26,27,32,33,34,34a-hexadecahydro-9,27-dihydroxy-3-[(1R)-2-[(1S,3R,4R)-4-hydroxy-3-methoxycyclohexyl]-1-methylethyl]-10,21-dimethoxy-6,8,12,14,20,26-hexamethyl-23,27-epoxy-3H-pyrido[2,1-c][1,4]-oxaazacyclohentriacontine-1,5,11,28,29(4H,6H,31H)-pentone]
Nannochloris sp. [1]; 200 nM
  Absorbance (percent increase): −5.9%
  Nile Red percent increase: 107.9%
Nannochloris sp. [1]; Nannochloris sp., compounds tested at 20 μM
  Nile Red Fluorescence % Increase: 117.3%
Nannochloropsis oculata [2]
  Nile Red Fluorescence % Increase: 141.6%
p70 S6 kinase activation
  IC50: 0.05 nM

## CCCOC(=O)c1cc(O)c(O)c(O)c1 [propyl gallate, propyl 3,4,5-trihydroxybenzoate]
[8]
  IC50: 4500 nM
Nannochloropsis salina [9]; batch cultures
  increase in lipid levels: 67%
Nannochloropsis salina [9]; N. salina, 500 mL culture
  Lipid productivity: 8.3 ± 1.7 mgL^−1day^−1
Nannochloropsis salina [9]; N. salina, 500 mL culture, dried lipid extract per dry biomass
  Lipid content: 25.9 ± 11.4 % w/w
Nannochloropsis salina [9]; N. salina, 500 mL culture, gravimetric, relative to averaged control without DMSO
  Change in Lipids: 67%
Nannochloropsis salina [9]; N. salina, 500 mL culture, mid-exponential growth phase
  Specific Growth Rate: 0.23 ± 0.002 day⁻¹
Nannochloropsis salina [4]; increase of lipid production, N. salina, best conc. 10 nM
  % Inc: 264.42%

## COc1ccc2c(c1)/C(=C/c1cnc[nH]1)C(=O)N2 [SU9516]
CDK
  IC50: 22 nM
